Reference: patent US9572343B2, “Active compound combinations” (BAYER CROPSCIENCE AG, priority 2012, dated 2017)
Read-outs that look alike come from different tables or passages of the source.

Assays:
Type in all cases: in vivo
Septoria tritici = experiment: Septoria tritici-test (wheat)/preventive; details: Table F1
Procedure: (§1) Solvent: 49 parts by weight of N,N-dimethylacetamide Emulsifier: 1 part by weight of alkylaryl polyglycol ether To produce a suitable preparation of active compound, 1 part by weight of active compound or active compound combination is mixed with the stated amounts of solvent and emulsifier, and the concentrate is diluted with water to the desired concentration. To test for preventive activity, young plants are sprayed with the preparation of active compound or active compound combination at the stated rate of application. After the spray coating has been dried, the plants are sprayed with a spore suspension of Septoria tritici.

Phakopsora pachyrhizi = experiment: Phakopsora test (soybeans)/preventive; details: Phakopsora pachyrhizi, 168 h, read-out: Efficacy in % found; for pest or weed control at 0.5 ppm: application rate 0.5 ppm a.i.
Uromyces appendiculatus = experiment: Uromyces test (beans)/preventive; details: Uromyces appendiculatus, 240 h, read-out: Efficacy in % found; for pest or weed control at 0.2 ppm: application rate 0.2 ppm a.i.
Procedure: (§2) Solvent: 24.5 parts by weight of acetone • 24.5 parts by weight of dimethylacetamide
(§3) Emulsifier: 1 part by weight of alkylaryl polyglycol ether
(§4) To produce a suitable preparation of active compound, 1 part by weight of active compound is mixed with the stated amounts of solvent and emulsifier, and the concentrate is diluted with water to the desired concentration.
(§5) To test for preventive activity, young plants are sprayed with the preparation of active compound at the stated rate of application. After the spray coating has dried on, the plants are inoculated with an aqueous spore suspension of the causal agent of bean rust (Uromyces appendiculatus) and then remain for 1 day in an incubation cabinet at approximately 20° C. and a relative atmospheric humidity of 100%.
The plants are then placed in a greenhouse at approximately 21° C. and a relative atmospheric humidity of approximately 90%.
The test is evaluated 10 days after the inoculation. 0% means an efficacy which corresponds to that of the untreated control, while an efficacy of 100% means that no disease is observed.

Sphaerotheca fuliginea = experiment: Sphaerotheca test (cucumbers)/preventive; details: Table G1
Procedure: (§6) Solvent: 24.5 parts by weight of acetone • 24.5 parts by weight of dimethylacetamide Emulsifier: 1 part by weight of alkylaryl polyglycol ether To produce a suitable preparation of active compound, 1 part by weight of active compound is mixed with the stated amounts of solvent and emulsifier, and the concentrate is diluted with water to the desired concentration. To test for preventive activity, young plants are sprayed with the preparation of active compound at the stated rate of application. After the spray coating has dried on, the plants are inoculated with an aqueous spore suspension of Sphaerotheca fuliginea.

Leptosphaeria nodorum = Leptosphaeria nodorum test (wheat)/preventive; details: Table C1
Procedure: as §1, with “Leptosphaeria nodorum.” for “Septoria tritici.”

Venturia inaequalis = experiment: Venturia test (apples)/preventive; details: Table I1
Procedure: as §6, with “application.” for “application. After the spray coating has dried on, the plants are inoculated with an aqueous spore suspension of Sphaerotheca fuliginea.”

Pyrenophora teres = experiment: Pyrenophora teres-test (barley)/preventive; details: Table E1; application rate 160 ppm a.i.
Procedure: Solvent: 49 parts by weight of N,N-dimethylacetamide
as §3
To produce a suitable preparation of active compound, 1 part by weight of active compound or active compound combination is mixed with the stated amounts of solvent and emulsifier, and the concentrate is diluted with water to the desired concentration.
To test for preventive activity, young plants are sprayed with the preparation of active compound or active compound combination at the stated rate of application.
After the spray coating has been dried, the plants are sprayed with a spore suspension of Pyrenophora teres. The plants remain for 48 hours in an incubation cabinet at approximately 20° C. and a relative atmospheric humidity of approximately 100%.
The plants are placed in the greenhouse at a temperature of approximately 20° C. and a relative atmospheric humidity of approximately 80%.
The test is evaluated 8 days after the inoculation. 0% means an efficacy which corresponds to that of the untreated control, while an efficacy of 100% means that no disease is observed.

Alternaria solani = experiment: Alternaria test (tomatoes)/preventive
Procedure: as §2, §3, §4
as §5, with “Alternaria solani. The plants are” for “the causal agent of bean rust (Uromyces appendiculatus) and”, “placed” for “remain for 1 day”
The test is evaluated 3 days after the inoculation. 0% means an efficacy which corresponds to that of the untreated control while an efficacy of 100% means that no disease is observed.

[1] = system: Blumeria graminis f.sp. hordei; experiment: Blumeria test (barley)/preventive; details: Table B1; application rate 160 ppm a.i.
Procedure: Solvent: 49 parts by weight of N,N-dimethylacetamide Emulsifier: 1 part by weight of alkylaryl polyglycol ether To produce a suitable preparation of active compound, 1 part by weight of active compound or active compound combination is mixed with the stated amounts of solvent and emulsifier, and the concentrate is diluted with water to the desired concentration. To test for preventive activity, young plants are sprayed with the preparation of active compound or active compound combination at the stated rate of application. After the spray coating has been dried, the plants are dusted with spores of Blumeria graminis f.sp. hordei.

Cn1c(=O)c2sc3c(=O)n(C)c(=O)c3sc2c1=O [15.61, 2,6-dimethyl-1H,5H-[1,4]dithiino[2,3-c:5,6-c′]dipyrrole-1,3,5,7(2H,6H)-tetrone]
Efficacy in % found (Septoria tritici; application rate 800 ppm a.i.): 0%
pest or weed control at 100 ppm (Phakopsora pachyrhizi; Table D3, application rate 100 ppm a.i.): 8%
pest or weed control at 100 ppm (Uromyces appendiculatus; Table H3, application rate 100 ppm a.i.): 0%
Efficacy in % found (Sphaerotheca fuliginea; application rate 100 ppm a.i.): 69%
Efficacy in % found (Leptosphaeria nodorum; application rate 800 ppm a.i.): 20%
Efficacy in % found (Venturia inaequalis; application rate 50 ppm a.i.): 84%

CCN(C)/C=N/c1cc(C)c(Oc2nc(Cl)c(Cl)s2)cc1C [(Ie)]
Efficacy in % found (Septoria tritici; application rate 160 ppm a.i.): 0%
Efficacy in % found (Pyrenophora teres): 57%
pest or weed control at 0.25 ppm (Phakopsora pachyrhizi; Table D1, application rate 0.25 ppm a.i.): 15%
pest or weed control at 0.5 ppm (Phakopsora pachyrhizi; Table D1): 35%
pest or weed control at 0.5 ppm (Phakopsora pachyrhizi; Table D2): 45%
pest or weed control at 0.5 ppm (Phakopsora pachyrhizi; Table D3): 40%
pest or weed control at 1 ppm (Phakopsora pachyrhizi; Table D3, application rate 1 ppm a.i.): 65%
pest or weed control at 0.25 ppm (Uromyces appendiculatus; Table H1, application rate 0.25 ppm a.i.): 50%
pest or weed control at 0.05 ppm (Uromyces appendiculatus; Table H2, application rate 0.05 ppm a.i.): 0%
pest or weed control at 0.1 ppm (Uromyces appendiculatus; Table H2, application rate 0.1 ppm a.i.): 0%
pest or weed control at 0.2 ppm (Uromyces appendiculatus; Table H2): 30%
pest or weed control at 0.2 ppm (Uromyces appendiculatus; Table H3): 11%
Efficacy in % found (Sphaerotheca fuliginea; application rate 0.5 ppm a.i.): 29%
Efficacy in % found (Sphaerotheca fuliginea; application rate 1 ppm a.i.): 29%
Efficacy in % found (Sphaerotheca fuliginea; application rate 1.25 ppm a.i.): 29%
Efficacy in % found (Leptosphaeria nodorum; application rate 80 ppm a.i.): 30%
Efficacy in % found (Leptosphaeria nodorum; application rate 160 ppm a.i.): 50%
Efficacy in % found (Alternaria solani; Table A1, application rate 0.5 ppm a.i.): 0%
Efficacy in % found (Alternaria solani; Table A1, application rate 1 ppm a.i.): 16%
Efficacy in % found (Alternaria solani; Table A2, application rate 5 ppm a.i.): 0%
Efficacy in % found (Alternaria solani; Table A3, application rate 1 ppm a.i.): 52%
Efficacy in % found (Venturia inaequalis; application rate 0.25 ppm a.i.): 0%
Efficacy in % found (Venturia inaequalis; application rate 0.5 ppm a.i.): 0%
Efficacy in % found (Venturia inaequalis; application rate 1 ppm a.i.): 0%
Efficacy in % found [1]: 50%
